{
  "source": "patent US9108969B2",
  "about": "“Substituted tricyclic acid derivatives as S1P1 receptor agonists useful in the treatment of autoimmune and inflammatory disorders” (Arena Pharmaceuticals, Inc., priority 2008, dated 2015)",
  "key": {"human S1P1 receptor": {"target": "T1, human S1P1 receptor (Homo sapiens, UniProt P21453)", "T1 construct": "expressed in transfected cells; host or cells: CHO-K1 (ATCC CCL-61), stably transfected", "T1 sequence (P21453 whole entry)": "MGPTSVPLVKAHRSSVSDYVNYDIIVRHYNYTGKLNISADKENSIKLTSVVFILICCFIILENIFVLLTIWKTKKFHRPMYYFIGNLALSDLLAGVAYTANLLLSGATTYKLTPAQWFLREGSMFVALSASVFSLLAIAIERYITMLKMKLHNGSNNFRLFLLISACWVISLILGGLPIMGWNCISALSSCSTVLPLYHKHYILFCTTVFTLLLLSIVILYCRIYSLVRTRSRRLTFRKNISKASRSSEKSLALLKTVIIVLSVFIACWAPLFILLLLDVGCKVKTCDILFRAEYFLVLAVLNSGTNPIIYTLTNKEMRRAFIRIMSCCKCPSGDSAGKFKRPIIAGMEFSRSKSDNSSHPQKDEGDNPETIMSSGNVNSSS", "test": "HTRF assay for direct cAMP measurement (S1P1 agonism)", "type": "cell-based", "conditions": "recombinant CHO-K1 cells stably transfected with S1P1; decrease of cAMP", "description": "Compounds were screened for agonists of the S1P1 receptor (e.g., human S1P1 receptor) using the HTRF® assay for direct cAMP measurement (Gabriel et al., Assay and Drug Development Technologies, 1:291-303, 2003) and recombinant CHO-K1 cells stably transfected with S1P1. CHO-K1 cells were obtained from ATCC® (Manassas, Va.; Catalog #CCL-61). An agonist of the S1P1 receptor was detected in the HTRF® assay for direct cAMP measurement as a compound which decreased cAMP concentration. HTRF® assay also was used to determine EC50 values for S1P1 receptor agonists.\nPrinciple of the Assay:HTRF® assay kit was purchased from Cisbio-US, Inc. (Bedford, Mass.; Catalog #62AM4PEC). The HTRF® assay supported by the kit is a competitive immunoassay between endogenous cAMP produced by the CHO-K 1 cells and tracer cAMP labeled with the dye d2. The tracer binding is visualized by a monoclonal anti-cAMP antibody labeled with Cryptate. The specific signal (i.e., fluorescence resonance energy transfer, FRET) is inversely proportional to the concentration of unlabeled cAMP in the standard or sample.\nStandard Curve:The fluorescence ratio (665 nm/620 nm) of the standards (0.17 to 712 nM cAMP) included in the assay was calculated and used to generate a cAMP standard curve according to the kit manufacturer's instructions. The fluorescence ratio of the samples (test compound or compound buffer) was calculated and used to deduce respective cAMP concentrations by reference to the cAMP standard curve.\nSetup of the Assay: The HTRF® assay was carried out using a two-step protocol essentially according to the kit manufacturer's instructions, in 20 μL total volume per well in 384-well plate format (ProxiPlates; PerkinElmer, Fremont, Calif.; catalog #6008280). To each of the experimental wells was transferred 1500 recombinant CHO-K1 cells in 5 μL phosphate buffered saline containing calcium chloride and magnesium chloride (PBS+; Invitrogen, Carlsbad, Calif.; catalog #14040) supplemented with IBMX (250 μM) and rolipram (20 μM) (phosphodiesterase inhibitors; Sigma-Aldrich, St. Louis, Mo.; catalog #15879 and catalog #R6520, respectively), followed by test compound in 5 μL compound buffer (PBS+ supplemented with […] (water-soluble forskolin derivative; SignaGen Laboratories, Gaithersburg, Md.; catalog #PKI-NKH477-010)) or 5 μL compound buffer. The plate was then incubated at room temperature for 1 h. To each well was then added 5 μL cAMP-d2 conjugate in lysis buffer and 5 μL Cryptate conjugate in lysis buffer according to the kit manufacturer's instructions. The plate was then further incubated at room temperature for 1 hour, after which the assay plate was read.\nAssay Readout: HTRF® readout was accomplished using a PHERAstar (BMG LABTECH Inc., Durham, N.C.) or EnVision™ (PerkinElmer, Fremont Calif.) microplate reader."}, "[1]": {"tested_on": "peripheral blood lymphocyte (PBL) count", "test": "Rat peripheral lymphocyte lowering (PLL) assay", "type": "in vivo, Male Sprague-Dawley rats", "conditions": "1 mg/kg intravenous dose, 5 h post-dose, FIG. 12 and 13", "method": "Animals: Male Sprague-Dawley rats (Charles River Laboratories, Hollister, Calif.) were housed and maintained in humidity (40 to 60%) and temperature (68 to 72° F.) controlled facility on a 12 h:12 h light/dark cycle (lights on at 6:30 am) with free access to food (Harlan Teklad, Orange, Calif., Rodent Diet 8604) and water. Rats were allowed (approximately) one week of habituation to the animal facility before testing.\nPLL Assay: Rats were given a 1 mg/kg intravenous dose of the first enantiomer isolated after resolution of compound 12 by HPLC (retention time: 15 min per the conditions reported in Example 1.3), or dosing vehicle (40% hydroxypropyl-cyclodextrin (HPCD)) in a total volume of 1 mL/kg. Peripheral blood samples were collected at 5 h post-dose. Blood was collected via indwelling catheter. A complete cell count (CBC), including lymphocyte count, was obtained using a CELL-DYN® 3700 (Abbott Laboratories, Abbott Park, Ill.) instrument. Results are presented in FIG. 12, in which peripheral blood lymphocyte (PBL) count is shown for the 5 hour group.\nSimilarly, rats were given a 1 mg/kg intravenous dose of the second enantiomer isolated after resolution of compound 12 by HPLC (retention time: 18 min per the conditions reported in Example 1.3), or dosing vehicle (40% hydroxypropyl-cyclodextrin (HPCD)) in a total volume of 1 mL/kg. […]"}, "[2]": {"tested_on": "peripheral blood lymphocyte (PBL) count", "test": "Mouse peripheral lymphocyte lowering (PLL) assay", "type": "in vivo, Male BALB/c mice", "conditions": "oral dose, 5 hours post-dose, FIG. 11", "method": "Animals: Male BALB/c mice (Charles River Laboratories, Wilmington, Mass.) were housed four per cage and maintained in a humidity-controlled (40 to 60%) and temperature-controlled (68 to 72° F.) facility on a 12 h:12 h light/dark cycle (lights on at 6:30 am) with free access to food (Harlan Teklad, Orange, Calif., Rodent Diet 8604) and water. Mice were allowed one week of habituation to the animal facility before testing.\nPLL Assay: Mice were given an oral dose of Compound 2 or dosing vehicle (0.5% methylcellulose) in a total volume of 10 mL/kg. Peripheral blood samples were collected at 5 hours post-dose. The mice were anesthetized with isoflurane and blood was collected via cardiac puncture. A complete cell count (CBC), including lymphocyte count, was obtained using a CELL-DYN® 3700 (Abbott Laboratories, Abbott Park, Ill.) instrument. Results are presented in FIG. 11, in which peripheral blood lymphocyte (PBL) count is shown for the 5 hour group."}, "[3]": {"tested_on": "collagen-induced arthritis", "test": "Collagen-induced arthritis assay", "type": "in vivo, Female Lewis rats", "conditions": "rat, 0.3, 1 and 3 mg/kg p.o. q.d. day 0 through day 16, FIG. 14", "method": "Female Lewis rats were used in this study. Acclimated animals were anesthetized with isoflurane and given the first collagen injection (day 0). On day 6, they were anesthetized again for the second collagen injection. Collagen was prepared by making a 4 mg/mL solution in 0.01 N acetic acid. Equal volumes of collagen and incomplete Freund's adjuvant were emulsified by hand mixing until a bead of this material held its form when placed in water. Each animal received 300 μL of the mixture each time, spread over 3 subcutaneous sites on the back.\nTreatment (p.o., q.d., 5 mL/kg dosing volume) began on day 0 and continued through day 16 with vehicle or compounds given at 24 h intervals. Rats were weighed on days 0, 3, 6 and 9 through 17 and caliper measurements of the ankles taken on days 9 through 17.\nThe second enantiomer isolated after resolution of compound 12 by HPLC (retention time: 18 min per the conditions reported in Example 1.3), was dosed at 0.3, 1 and 3 mg/kg."}, "peripheral lymphocytes": {"tested_on": "peripheral lymphocytes", "conditions": "Hale et al. 2004; cited from earlier work"}, "[4]": {"conditions": "attributed to agonism of the S1P3 receptor; cited from earlier work"}, "multiple sclerosis": {"tested_on": "multiple sclerosis", "conditions": "patients with multiple sclerosis, Phase II; cited from earlier work"}, "[5]": {"tested_on": "experimental autoimmune uveoretinitis", "conditions": "short-term high dose; cited from earlier work"}, "[6]": {"tested_on": "ovariectomy-induced osteoporosis", "conditions": "mice; cited from earlier work"}, "[7]": {"tested_on": "VEGF-induced vascular permeability", "conditions": "mice, oral administration; cited from earlier work"}, "[8]": {"tested_on": "spared nerve injury model", "conditions": "cited from earlier work"}, "[9]": {"tested_on": "contact hypersensitivity (CHS)", "conditions": "murine; cited from earlier work"}, "[10]": {"tested_on": "experimental autoimmune myasthenia gravis (EAMG)", "conditions": "prophylactic oral administration, 1 mg/kg, three times a week, C57BL/6 mice; cited from earlier work"}},
  "data": [
    {"compound": "CC(C)Oc1ccc(COc2ccc3c(c2)cc2n3CCC2CC(=O)O)cc1C#N", "note": "(centres unmarked) [Compound 6, 2-(7-(3-cyano-4-isopropoxybenzyloxy)-2,3-dihydro-1H-pyrrolo[1,2-a]indol-1-yl)acetic acid]", "values": [
      {"measurement": "EC50", "setting": "human S1P1 receptor", "value": 0.239, "unit": "nM"}
    ]},
    {"compound": "O=C(O)CC1CCn2c1c(C1CCC1)c1cc(OCc3ccc(C4CCCC4)c(C(F)(F)F)c3)ccc12", "note": "(centres unmarked) [Compound 11, 2-(9-cyclobutyl-7-(4-cyclopentyl-3-(trifluoromethyl)benzyloxy)-2,3-dihydro-1H-pyrrolo[1,2-a]indol-1-yl)acetic acid]", "values": [
      {"measurement": "EC50", "setting": "human S1P1 receptor", "value": 5.2, "unit": "nM"}
    ]},
    {"compound": "O=C(O)CC1CCn2c1cc1cc(OCc3ccc(C4CCCC4)c(C(F)(F)F)c3)ccc12", "note": "(stereo not drawn) [first enantiomer isolated after resolution of compound 12 by HPLC, 2-(7-(4-cyclopentyl-3-(trifluoromethyl)benzyloxy)-2,3-dihydro-1H-pyrrolo[1,2-a]indol-1-yl)acetic acid]", "values": [
      {"measurement": "peripheral blood lymphocyte (PBL) lowering compared to vehicle", "setting": "[1]", "value": "exhibited activity for inducing PBL lowering (lymphopenia)"}
    ]},
    {"compound": "N#Cc1cc(COc2ccc3c(c2)cc2n3CCC2CC(=O)O)cc(OC(F)(F)F)c1", "note": "(centres unmarked) [Compound 2, 2-(7-(3-cyano-5-(trifluoromethoxy)benzyloxy)-2,3-dihydro-1H-pyrrolo[1,2-a]indol-1-yl)acetic acid]", "values": [
      {"measurement": "peripheral blood lymphocyte (PBL) lowering compared to vehicle", "setting": "[2]", "value": "exhibited activity for inducing PBL lowering (lymphopenia)"}
    ]},
    {"compound": "CC(C)Cc1ccc(COc2ccc3c(c2)cc2n3CCC2CC(=O)O)cc1C(F)(F)F", "note": "(centres unmarked) [Compound 4, 2-(7-(4-isobutyl-3-(trifluoromethyl)benzyloxy)-2,3-dihydro-1H-pyrrolo[1,2-a]indol-1-yl)acetic acid]", "values": [
      {"measurement": "EC50", "setting": "human S1P1 receptor", "value": 0.321, "unit": "nM"}
    ]},
    {"compound": "O=C(O)CC1CCn2c1cc1cc(OCc3ccc(C4CCCC4)c(C(F)(F)F)c3)ccc12", "note": "(stereo not drawn) [second enantiomer isolated after resolution of compound 12 by HPLC, 2-(7-(4-cyclopentyl-3-(trifluoromethyl)benzyloxy)-2,3-dihydro-1H-pyrrolo[1,2-a]indol-1-yl)acetic acid]", "values": [
      {"measurement": "reduction of mean ankle diameter compared to vehicle", "setting": "[3]", "value": "exhibited activity for reducing mean ankle diameter"}
    ]},
    {"compound": "O=C(O)CC1CCn2c1nc1cc(OCc3ccc(C4CCCC4)c(C(F)(F)F)c3)ccc12", "note": "(centres unmarked) [Compound 14, 2-(6-(4-cyclopentyl-3-(trifluoromethyl)benzyloxy)-2,3-dihydro-1H-benzo[d]pyrrolo[1,2-a]imidazol-3-yl)acetic acid]", "values": [
      {"measurement": "EC50", "setting": "human S1P1 receptor", "value": 6.3, "unit": "nM"}
    ]},
    {"compound": "O=C(O)CC1CCn2c1c(I)c1cc(OCc3ccc(C4CCCC4)c(C(F)(F)F)c3)ccc12", "note": "(centres unmarked) [Compound 10, 2-(7-(4-cyclopentyl-3-(trifluoromethyl)benzyloxy)-9-iodo-2,3-dihydro-1H-pyrrolo[1,2-a]indol-1-yl)acetic acid]", "values": [
      {"measurement": "EC50", "setting": "human S1P1 receptor", "value": 0.011, "unit": "nM"}
    ]},
    {"compound": "CCCCCCCCc1ccc(CCC(N)(CO)CO)cc1", "note": "[FTY720]", "values": [
      {"measurement": "induction of lymphopenia (peripheral lymphocyte lowering)", "setting": "peripheral lymphocytes", "value": "rapidly and reversibly induce lymphopenia"},
      {"measurement": "adverse event in clinical trials", "setting": "[4]", "value": "transient asymptomatic bradycardia"},
      {"measurement": "MRI lesions and clinical disease activity", "setting": "multiple sclerosis", "value": "reduce the number of lesions detected by magnetic resonance imaging (MRI) and clinical disease activity"},
      {"measurement": "ocular infiltrates", "setting": "[5]", "value": "rapidly reduced ocular infiltrates"},
      {"measurement": "ovariectomy-induced osteoporosis", "setting": "[6]", "value": "relieved ovariectomy-induced osteoporosis"},
      {"measurement": "VEGF-induced vascular permeability", "setting": "[7]", "value": "potently blocked VEGF-induced vascular permeability"},
      {"measurement": "nociceptive behavior", "setting": "[8]", "value": "reduce the nociceptive behavior"},
      {"measurement": "initiation of contact hypersensitivity", "setting": "[9]", "value": "impair initiation of murine contact hypersensitivity"},
      {"measurement": "development of EAMG", "setting": "[10]", "value": "completely prevented the development of experimental autoimmune myasthenia gravis"}
    ]}
  ]
}
